# Where two headings read alike, the source gives them in different places.
# Tests used:
# Test in all cases: stopped-flow CA inhibition assay
# Type in all cases: biochemical
# hCA IX = target: T1, hCA IX (Homo sapiens, UniProt Q16790)
# T1 construct: gene CA9; recombinant, obtained in-house
# Source text: stopped-flow CA inhibition assay on hCA IX
# hCA XII = target: T2, hCA XII (Homo sapiens, UniProt O43570)
# T2 construct: gene CA12; recombinant, obtained in-house
# Source text: stopped-flow CA inhibition assay on hCA XII
# hCA I = target: T3, hCA I (Homo sapiens, UniProt P00915)
# T3 construct: gene CA1; recombinant, obtained in-house
# Source text: stopped-flow CA inhibition assay on hCA I
# hCA II = target: T4, hCA II (Homo sapiens, UniProt P00918)
# T4 construct: gene CA2; recombinant, obtained in-house
# Source text: stopped-flow CA inhibition assay on hCA II
# T2 sequence (O43570 25-354): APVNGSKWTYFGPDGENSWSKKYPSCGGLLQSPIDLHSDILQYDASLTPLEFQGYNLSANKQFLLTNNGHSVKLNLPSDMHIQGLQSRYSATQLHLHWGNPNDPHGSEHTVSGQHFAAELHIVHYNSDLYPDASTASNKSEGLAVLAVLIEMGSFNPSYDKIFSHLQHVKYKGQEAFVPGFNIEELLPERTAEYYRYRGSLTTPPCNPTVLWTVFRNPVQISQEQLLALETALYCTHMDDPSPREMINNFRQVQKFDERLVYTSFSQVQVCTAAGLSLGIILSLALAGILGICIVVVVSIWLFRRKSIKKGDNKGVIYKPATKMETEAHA
# T3 sequence (P00915 2-261): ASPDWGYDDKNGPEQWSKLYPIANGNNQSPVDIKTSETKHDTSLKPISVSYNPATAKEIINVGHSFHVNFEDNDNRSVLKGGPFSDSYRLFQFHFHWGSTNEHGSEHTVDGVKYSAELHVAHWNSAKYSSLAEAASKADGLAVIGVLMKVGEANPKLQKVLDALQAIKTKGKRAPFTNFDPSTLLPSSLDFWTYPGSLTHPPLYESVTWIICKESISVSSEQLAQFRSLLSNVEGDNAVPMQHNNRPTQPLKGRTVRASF
Ki (hCA IX),Ki (hCA XII),Ki (hCA I),"Ki (hCA IX; mean of […] assays, errors ±[…])","Ki (hCA XII; mean of […] assays, errors ±[…])",Ki (hCA II),Compound
40.7 nM,13 nM,593 nM,,,,"NS(=O)(=O)c1ccc(CCn2c(SCC(=O)c3ccccc3)nc3ccccc3c2=O)cc1 [compound 2, 4-(2-(4-Oxo-2-((2-oxo-2-phenylethyl)thio)quinazolin-3(4H)-yl)ethyl)benzenesulfonamide]"
75.2 nM,69.6 nM,1450 nM,,,,"NS(=O)(=O)c1ccc(CCn2c(SCC(=O)c3ccc(Br)cc3)nc3ccccc3c2=O)cc1 [compound 3, 4-(2-(2-((2-(4-Bromophenyl)-2-oxoethyl)thio)-4-oxoquinazolin-3(4H)-yl)ethyl)benzenesulfonamide]"
,,,8 nM,10.8 nM,,"NS(=O)(=O)c1ccc(CCn2c(SCC(=O)c3ccc(Cl)cc3)nc3ccccc3c2=O)cc1 [compound 4, 4-(2-(2-((2-(4-Chlorophenyl)-2-oxoethyl)thio)-4-oxoquinazolin-3(4H)-yl)ethyl)benzenesulfonamide]"
,9.1 nM,400 nM,16.5 nM,,,"NS(=O)(=O)c1ccc(CCn2c(SCC(=O)c3ccc(F)cc3)nc3ccccc3c2=O)cc1 [compound 5, 4-(2-(2-((2-(4-Fluorophenyl)-2-oxoethyl)thio)-4-oxoquinazolin-3(4H)-yl)ethyl)benzenesulfonamide]"
25.1 nM,85.1 nM,471 nM,,,,"Cc1ccc(C(=O)CSc2nc3ccccc3c(=O)n2CCc2ccc(S(N)(=O)=O)cc2)cc1 [compound 6, 4-(2-(4-Oxo-2-((2-oxo-2-(p-tolyl)ethyl)thio)quinazolin-3(4H)-yl)ethyl)benzenesulfonamide]"
63.2 nM,76.8 nM,978 nM,,,,"CC(Sc1nc2ccccc2c(=O)n1CCc1ccc(S(N)(=O)=O)cc1)C(=O)c1ccccc1 (stereo not shown) [compound 7, 4-(2-(4-Oxo-2-((1-oxo-1-phenylpropan-2-yl)thio)quinazolin-3(4H)-yl)ethyl)benzenesulfonamide]"
,,,34.5 nM,2.4 nM,,"NC(=O)CSc1nc2ccccc2c(=O)n1CCc1ccc(S(N)(=O)=O)cc1 [compound 8, 8]"
27.3 nM,38.4 nM,460 nM,,,,"NS(=O)(=O)c1ccc(CCn2c(SCC(=O)Nc3ccccc3)nc3ccccc3c2=O)cc1 [compound 9, 9]"
64.9 nM,61 nM,697 nM,,,,"NS(=O)(=O)c1ccc(CCn2c(SCC(=O)Nc3ccc(Br)cc3)nc3ccccc3c2=O)cc1 [compound 10, 10]"
66.8 nM,31.6 nM,726 nM,,,92 nM,"NS(=O)(=O)c1ccc(CCn2c(SCC(=O)Nc3ccc(Cl)cc3)nc3ccccc3c2=O)cc1 [compound 11, 11]"
,8.7 nM,,12.7 nM,,,"NS(=O)(=O)c1ccc(CCn2c(SCC(=O)Nc3ccc(F)cc3)nc3ccccc3c2=O)cc1 [compound 12, N-(4-fluorophenyl)-2-((4-oxo-3-(4-sulfamoylphenethyl)-3,4-dihydroquinazolin-2-yl)thio)acetamide]"
37.4 nM,45.2 nM,878 nM,,,,"Cc1ccc(NC(=O)CSc2nc3ccccc3c(=O)n2CCc2ccc(S(N)(=O)=O)cc2)cc1 [compound 13, 13]"
84 nM,49.1 nM,2570 nM,,,,"COc1ccc(NC(=O)CSc2nc3ccccc3c(=O)n2CCc2ccc(S(N)(=O)=O)cc2)cc1 [compound 14, 14]"
35.9 nM,59.7 nM,3650 nM,,,,"CCOc1ccc(NC(=O)CSc2nc3ccccc3c(=O)n2CCc2ccc(S(N)(=O)=O)cc2)cc1 [compound 15, 15]"
24.1 nM,22.5 nM,1700 nM,,,,"CC(=O)c1ccc(NC(=O)CSc2nc3ccccc3c(=O)n2CCc2ccc(S(N)(=O)=O)cc2)cc1 [compound 16, 16]"
100 nM,16.9 nM,2670 nM,,,,"COc1cc(NC(=O)CSc2nc3ccccc3c(=O)n2CCc2ccc(S(N)(=O)=O)cc2)cc(OC)c1OC [compound 17, 17]"
256 nM,113 nM,2050 nM,,,,"NS(=O)(=O)c1ccc(CCn2c(SCC(=O)NCc3ccc(F)cc3)nc3ccccc3c2=O)cc1 [compound 18, N-(4-fluorobenzyl)-2-((4-oxo-3-(4-sulfamoylphenethyl)-3,4-dihydroquinazolin-2-yl)thio)acetamide]"
145 nM,97.3 nM,5470 nM,,,,"COc1ccc(CNC(=O)CSc2nc3ccccc3c(=O)n2CCc2ccc(S(N)(=O)=O)cc2)cc1OC [compound 19, 19]"
18.6 nM,66.7 nM,3630 nM,,,,"CC(Sc1nc2ccccc2c(=O)n1CCc1ccc(S(N)(=O)=O)cc1)C(=O)Nc1ccc(Cl)cc1 (stereo not shown) [compound 20, 20]"
